Laboratory results: article PMC13327620, “A Deep‐Red‐Absorbing Osmium(II) Complex as a Photosensitizer for Photodynamic Therapy Inducing Immunogenic Cell Death” (Angewandte Chemie (International Ed. in English), 2026)

Assays:
[1] = test system: human fibroblast cells (MRC-5); assay: Resazurin cell viability assay, dark toxicity; assay type: cell-based; conditions: MRC5, MRC-5, dark
Method: (§1) (100 U ml−1), streptomycin (100 U ml−1), and 1% L-glutamine. The murine fibrosarcom a (MCA205) cells were cultured in RPMI 1640 medium with 10% fetal bovine serum (FBS), penicillin (100 U ml−1), streptomycin (100 U ml−1), and 1% L-glutamine. All cells were incubated at 37 °C in a humidified atmosphere with 5 % CO2.
(§2) Normoxia. The in vitro viability of cells exposed to the complexes was determined using a resazurin assay. C ells were seeded in 96-well plates at densities of 4,000 cells/well for CT26, MC A205 and U-87 MG cells, and 8,000 cells/well for MRC-5 and NIH/3T3 cells. A fter 24 h of growth at 37 °C wit h 5% CO2, the medium was replaced with fresh medium containing various concentrations of the compounds . Following a 4- h incubation in the dark, the medium was refres hed , and the plates were exposed to irradiation usinga LUM OS -BIO photoreactor (At las Photonics).N on- ir rad iated plates were similarly refr eshed with medium and kept in the dark for the same duration. After a 40- h r ecov ery period, a f reshly pr epar ed resazurin solution (0.2 mg/mL) was added to each well, and the plates were left in the dark for 4 h before analysis on a B i o Te k Cytation 5 Cell Imaging Multimode Reader (Agil ent Technologies).
(§3) Hypoxia.Hypoxia cells were from well -grown normoxia cells and cultured for at least two weeks before use. […]

[2] = test system: mouse fibroblast cells (NIH/3T3); assay: Resazurin cell viability assay, dark toxicity; assay type: cell-based; conditions: NIH3T3, NIH/3T3, dark
Method: as §1, §2, §3

MCA205 cells = assay: Annexin V-FITC/propidium iodide (AV/PI) cell viability assay by flow cytometry; assay type: cell-based, mouse; conditions: MCA205, 740 nm LED light illumination
Description: Regarding the optimal dose of each drug for in vivo vaccination, we continued to follow the same standards as with CT26‐luc cells, using the concentration of each drug that results in approximately 5% of live cells as the in vivo dose. The testing method remained the same, using the AV/PI dual staining assay. Negative controls still included the untreated group (direct injection of PBS solution) and the non‐ICD inducer Cisplatin. Based on the in vitro HMGB‐1 release results, Ce6 was maintained as the positive control. For a more comprehensive comparison, we also added the platinum‐based chemotherapeutic agent Oxaliplatin as a non‐PS ICD inducer, serving as an additional positive control.
As the drug concentration increased, the cells gradually shifted to dying (Q3, Annexin V^+/PI^−) or dead (Q2, Annexin V^+/PI^+ and Q1, Annexin V^−/PI^+) state. For MCA205 cells, the concentrations corresponding to approximately 5% cell survival for each drug were 500 µM Cisplatin and 1400 µM Oxaliplatin in the dark, 5.5 µM Ce6 and 3 µM Os2 under 740 nm LED light illumination. […]
incubated for 24 h. Cells were then treat ed with the determined IC50 of complexes and irradiated or kept in the dark. Supernatants were collected 12 h post-t reatm ent, and the extracellular ATP content was measured with Adenosine 5′ -triphosphate (ATP) Bioluminescent Assay Kit (Sigma-Aldrich) according tomanufacturer ’s ins truction.
Cell viability assay f o r in vivo by flow cytometry
CT26-luc or MCA205 cells were seeded in 6-well plates at a density of 1 ×1 05 cells per well and cultured for 24 h at 37 °C with 5% CO 2. The medium was replaced by various concentrations of the compound dilutions in fresh medium.For Ce6 and Os2, after 4 h incubation in the dark, the medium w as r efr eshed and the plates wer e illuminated with a LUMOS-BIO photoreactor (Atlas Photonics), followed by an additional 20- h incubation in the dark. […]
556419) and PI (BD Biosciences, Catalog no.51- 66211E). CT26- luc cells were analyzed by flow cytometry (Beckm an Coulter Life Sciences, CytoFLEX LX Flow Cytometer). […]

IFN‐γ and IL‐17A = assay: Cytokine assay (ELISA) in serum after vaccination; assay type: in vivo, BALB/c mice; conditions: day 7, compared to Control and Cisplatin groups
Description: Encouraged by the excellent performance of Os2 in inducing ICD both in vitro and in vivo, we decided to further evaluate the antitumor immune response following vaccination. A key feature of ICD is its ability to initiate antigen‐specific adaptive immune responses. To assess this, we measured the immune cell response in the spleens and the cytokine levels in the serum of mice 7 days after vaccination (Figures 6A and S28).
PerCp Cy5.5 (Biolegend, Catalog no.100217, cl one 17A2), anti -CD4- Kiravia 520 (Biolegend, Catalog no. 100477, clone GK1.5), anti-CD8a-BUV496 (Ther mo F i s h er […]
transcription factor staini ng, the cells were treat ed with True- Nuclear™ Transcription Factor Buffer Set (Biolegend, Catalog no. 424401) after surface staining an d re-stained with fluorescen ce-labeled anti-IFNγ-PE (Biolegend, Catalog no. 505807, clone XMG1.2), anti-FoxP3- BV421 (Biolegend, Catalog no.126419, clone MF-14) and Zombie NIR™Fixable Viability Kit( Biolegend,Catalog no.423105).
Serum samples were obt ained from the mice on day 7 after treatment. Cytokine was detected using ELISA kits according to the manufacturer ’s instructions: IFN-γ (Biolegend, Catalog no. 430807) and IL -17A ( Bi olegend, Catalog no.432507).
All the analysis data are given as mean ± SEM. […]

Compound: C=Cc1c(C)c2cc3nc(c(CC(=O)O)c4[nH]c(cc5nc(cc1[nH]2)C(C)=C5CC)c(C)c4C(=O)O)[C@@H](CCC(=O)O)[C@@H]3C [Ce6, chlorin e6]
- IC50 [1]: > 100 µM
- IC50 [2]: > 100 µM
- Concentration corresponding to approximately 5% cell survival (MCA205 cells): 5.5 µM
- IFN‐γ level in serum (IFN‐γ and IL‐17A): significant increase
- IL‐17A level in serum (IFN‐γ and IL‐17A): significant increase
